{"source": "ChEMBL document CHEMBL1201862", "about": "“PubChem BioAssay data set” (2004)", "test_in_all_cases": "NCI anticancer screen, dose series, 48 h", "key": {"CAKI-1": {"system": "CAKI-1"}, "COLO 205": {"system": "COLO 205"}, "DU-145": {"system": "DU-145"}, "HCC 2998": {"system": "HCC 2998"}, "HCT-15": {"system": "HCT-15"}, "HOP-92": {"system": "HOP-92"}, "Hs-578T": {"system": "Hs-578T"}, "M14": {"system": "M14"}, "MDA-MB-435": {"system": "MDA-MB-435"}, "MOLT-4": {"system": "MOLT-4"}, "NCI-H23": {"system": "NCI-H23"}, "NCI-H522": {"system": "NCI-H522"}, "OVCAR-3": {"system": "OVCAR-3"}, "OVCAR-8": {"system": "OVCAR-8"}, "PC-3": {"system": "PC-3"}, "RXF 393": {"system": "RXF 393"}, "SK-MEL-5": {"system": "SK-MEL-5"}, "SK-OV-3": {"system": "SK-OV-3"}, "U-251": {"system": "U-251"}, "UACC-62": {"system": "UACC-62"}}, "note": "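All cell lines were grown in 96-well plates and treated with compound for 48 hours. GI50 marks 50% less growth.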 Activity calls are given as the source filed them. Rule as the data show it: active = GI50 up to about 1.1 µM and inactive = higher.", "data": [{"smiles": "CCCSc1ccc2[nH]c(N3C(=O)/C(=C/c4ccc(SC)cc4)N=C3c3ccccc3)cc2c1", "values": [{"measurement": "GI50", "setting": "CAKI-1", "value": "38.8 µM (inactive)"}, {"measurement": "GI50", "setting": "COLO 205", "value": "14.2 µM (inactive)"}, {"measurement": "GI50", "setting": "DU-145", "value": "> 50 µM (inactive)"}, {"measurement": "GI50", "setting": "HCC 2998", "value": "14.1 µM (inactive)"}, {"measurement": "GI50", "setting": "HCT-15", "value": 22.1, "unit": "µM"}, {"measurement": "GI50", "setting": "HOP-92", "value": "> 50 µM (inactive)"}, {"measurement": "GI50", "setting": "Hs-578T", "value": "28.1 µM (inactive)"}, {"measurement": "GI50", "setting": "M14", "value": "21.4 µM (inactive)"}, {"measurement": "GI50", "setting": "MDA-MB-435", "value": "5.05 µM (inactive)"}, {"measurement": "GI50", "setting": "MOLT-4", "value": "1.87 µM (inactive)"}, {"measurement": "GI50", "setting": "NCI-H23", "value": "> 34.4 µM (inactive)"}, {"measurement": "GI50", "setting": "NCI-H522", "value": "16.1 µM (inactive)"}, {"measurement": "GI50", "setting": "OVCAR-3", "value": "24.6 µM (inactive)"}, {"measurement": "GI50", "setting": "OVCAR-8", "value": "> 44.6 µM (inactive)"}, {"measurement": "GI50", "setting": "PC-3", "value": "25.9 µM (inactive)"}, {"measurement": "GI50", "setting": "RXF 393", "value": "19.9 µM (inactive)"}, {"measurement": "GI50", "setting": "SK-MEL-5", "value": "10.7 µM (inactive)"}, {"measurement": "GI50", "setting": "SK-OV-3", "value": "41.5 µM (inactive)"}, {"measurement": "GI50", "setting": "U-251", "value": "27.1 µM (inactive)"}, {"measurement": "GI50", "setting": "UACC-62", "value": "24.7 µM (inactive)"}]}, {"smiles": "O=C(/C=C/c1ccc(O)c(O)c1)OCCOC(=O)/C=C/c1ccc(O)c(O)c1", "values": [{"measurement": "GI50", "setting": "CAKI-1", "value": "39.4 µM (inactive)"}, {"measurement": "GI50", "setting": "COLO 205", "value": "19.5 µM (inactive)"}, {"measurement": "GI50", "setting": "DU-145", "value": "24.7 µM (inactive)"}, {"measurement": "GI50", "setting": "HCC 2998", "value": "31.8 µM (inactive)"}, {"measurement": "GI50", "setting": "HCT-15", "value": 35.1, "unit": "µM"}, {"measurement": "GI50", "setting": "HOP-92", "value": "42.2 µM (inactive)"}, {"measurement": "GI50", "setting": "Hs-578T", "value": "39.4 µM (inactive)"}, {"measurement": "GI50", "setting": "M14", "value": "14.7 µM (inactive)"}, {"measurement": "GI50", "setting": "MDA-MB-435", "value": "31.3 µM (inactive)"}, {"measurement": "GI50", "setting": "MOLT-4", "value": "20.9 µM (inactive)"}, {"measurement": "GI50", "setting": "NCI-H23", "value": "29.4 µM (inactive)"}, {"measurement": "GI50", "setting": "NCI-H522", "value": "20 µM (inactive)"}, {"measurement": "GI50", "setting": "OVCAR-3", "value": "19.3 µM (inactive)"}, {"measurement": "GI50", "setting": "OVCAR-8", "value": "32.2 µM (inactive)"}, {"measurement": "GI50", "setting": "PC-3", "value": "32 µM (inactive)"}, {"measurement": "GI50", "setting": "RXF 393", "value": "22.6 µM (inactive)"}, {"measurement": "GI50", "setting": "SK-MEL-5", "value": "18.2 µM (inactive)"}, {"measurement": "GI50", "setting": "SK-OV-3", "value": "24.2 µM (inactive)"}, {"measurement": "GI50", "setting": "U-251", "value": "25.3 µM (inactive)"}, {"measurement": "GI50", "setting": "UACC-62", "value": "18.7 µM (inactive)"}]}, {"smiles": "N#CC1CCCC2SC(F)(F)C(F)(F)C12", "note": "(stereo not given)", "values": [{"measurement": "GI50", "setting": "CAKI-1", "value": "> 100 µM (inactive)"}, {"measurement": "GI50", "setting": "COLO 205", "value": "> 100 µM (inactive)"}, {"measurement": "GI50", "setting": "DU-145", "value": "> 100 µM (inactive)"}, {"measurement": "GI50", "setting": "HCC 2998", "value": "> 100 µM (inactive)"}, {"measurement": "GI50", "setting": "HCT-15", "value": "> 100", "unit": "µM"}, {"measurement": "GI50", "setting": "HOP-92", "value": "> 100 µM (inactive)"}, {"measurement": "GI50", "setting": "Hs-578T", "value": "> 100 µM (inactive)"}, {"measurement": "GI50", "setting": "M14", "value": "> 100 µM (inactive)"}, {"measurement": "GI50", "setting": "MDA-MB-435", "value": "> 100 µM (inactive)"}, {"measurement": "GI50", "setting": "MOLT-4", "value": "26.6 µM (inactive)"}, {"measurement": "GI50", "setting": "NCI-H23", "value": "> 100 µM (inactive)"}, {"measurement": "GI50", "setting": "NCI-H522", "value": "> 87.5 µM (inactive)"}, {"measurement": "GI50", "setting": "OVCAR-3", "value": "> 100 µM (inactive)"}, {"measurement": "GI50", "setting": "OVCAR-8", "value": "> 100 µM (inactive)"}, {"measurement": "GI50", "setting": "PC-3", "value": "> 100 µM (inactive)"}, {"measurement": "GI50", "setting": "RXF 393", "value": "> 100 µM (inactive)"}, {"measurement": "GI50", "setting": "SK-MEL-5", "value": "> 100 µM (inactive)"}, {"measurement": "GI50", "setting": "SK-OV-3", "value": "> 100 µM (inactive)"}, {"measurement": "GI50", "setting": "U-251", "value": "> 100 µM (inactive)"}, {"measurement": "GI50", "setting": "UACC-62", "value": "> 100 µM (inactive)"}]}, {"smiles": "C=CCN1CCC(OC(=O)C(O)(C#CC)C2CCCC2)CC1", "note": "(stereo not given)", "values": [{"measurement": "GI50", "setting": "CAKI-1", "value": "> 100 µM (inactive)"}, {"measurement": "GI50", "setting": "COLO 205", "value": "> 100 µM (inactive)"}, {"measurement": "GI50", "setting": "DU-145", "value": "> 100 µM (inactive)"}, {"measurement": "GI50", "setting": "HCC 2998", "value": "> 100 µM (inactive)"}, {"measurement": "GI50", "setting": "HCT-15", "value": "> 100", "unit": "µM"}, {"measurement": "GI50", "setting": "HOP-92", "value": "> 100 µM (inactive)"}, {"measurement": "GI50", "setting": "Hs-578T", "value": "> 100 µM (inactive)"}, {"measurement": "GI50", "setting": "M14", "value": "> 100 µM (inactive)"}, {"measurement": "GI50", "setting": "MDA-MB-435", "value": "> 100 µM (inactive)"}, {"measurement": "GI50", "setting": "MOLT-4", "value": "> 100 µM (inactive)"}, {"measurement": "GI50", "setting": "NCI-H23", "value": "> 100 µM (inactive)"}, {"measurement": "GI50", "setting": "NCI-H522", "value": "> 100 µM (inactive)"}, {"measurement": "GI50", "setting": "OVCAR-3", "value": "> 100 µM (inactive)"}, {"measurement": "GI50", "setting": "OVCAR-8", "value": "> 100 µM (inactive)"}, {"measurement": "GI50", "setting": "PC-3", "value": "> 100 µM (inactive)"}, {"measurement": "GI50", "setting": "RXF 393", "value": "> 100 µM (inactive)"}, {"measurement": "GI50", "setting": "SK-MEL-5", "value": "> 100 µM (inactive)"}, {"measurement": "GI50", "setting": "SK-OV-3", "value": "> 100 µM (inactive)"}, {"measurement": "GI50", "setting": "U-251", "value": "> 100 µM (inactive)"}, {"measurement": "GI50", "setting": "UACC-62", "value": "> 100 µM (inactive)"}]}]}
